System: human intestinal microsomes
Assay: Stability of simvastatin in human intestinal microsomes (first intestinal passage effect)
Details: 1 mg/ml microsomes, 37° C., 12 μmol
Procedure: The test is carried out in vitro using human intestinal microsomes containing:
0.09 nmol/mg of cytochromes P450,
0.77 nmol/min/mg of cytochromes P450 3 A 4.
1 mg/ml of microsomes is then placed in contact:
with a regenerating system having the following composition:
followed by equilibration at 37° C. for 3 minutes.
100 μl aliquots are mixed with a solution of 400 μl of a 50/50 mixture of ice and acetonitrile at 0, 15, 30, 60, 120 and 180 minutes. Testosterone is tested in parallel as control component.
The conditions for carrying out the HPLC are as follows:
The mass spectrometer used is known under the reference PE SCIEX 150.

`C[C@]12CC[C@H]3[C@@H](CCC4=CC(=O)CC[C@@]43C)[C@@H]1CC[C@@H]2O` [TESTOSTERONE, Testosterone] was tested, and the Percentage remaining (simvastatin (or testosterone control) remaining, time 0 min) was 100%, the Percentage remaining (time 15 min) was “completely disappeared” and the Percentage remaining (time 180 min) was 0%.
